Data set [1] in a line: Comfort of hydrophilic excipient bases. The format is in vivo. The conditions noted are these: hydrophilic base. The source says:
(§1) The purpose of this study was to investigate the feasibility of formulating Minocycline HCl in a ‘gelment’ with a medicated swab container closure. Specifically, formulation feasibility and stability with hydrophilic bases (PEG 400, propylene glycol, glycerol) investigated. Glycerin was unacceptable from a comfort perspective. […] (Following 3 weeks at 25/40, epi-minocycline was 20.7% for PEG 400 base and 2.9% for propylene glycol base.) Degradation was not detected following e-beam irradiation of Minocycline suspended in light mineral oil (single-point testing performed following irradiation—no stability evaluation).

A short description of data set [2]: Degradation after e-beam irradiation. It counts as physicochemical. To be noted: suspended in light mineral oil; single-point testing following irradiation.
Excerpt: as §1

A short description of data set [3]: Excipient compatibility stability screen, minocycline quantitated by HPLC. The conditions noted are these: in mineral oil, relative to castor and olive oil.
Data set [4] is described as follows: Batch uniformity and stability of micronized and unmicronized oil and ointment formulations. The conditions noted are these: jetmilling or cryomilling; 2 batches of drug substance. The format is physicochemical. How it is done: Two Minocycline HCl drug substance batches were micronized (by jetmilling and cryomilling) and evaluated for chemical properties post-micronization. Jetmilled, cryomilled, and unmicronized oil and ointment formulations were evaluated for batch uniformity and stability.
Oil formulations were 100% oil and ointments were 100% petrolatum. […]. […] evaluated with respect to solubility in light mineral oil.
[…]. The oil suspensions in this study provided consistent T0 results, unlike the earlier oil formulations with unmicronized Minocycline HCl.

Molecules are shown by their SMILES. Where a name gives a salt, the structure may show the parent alone.

Consider `OCC(O)CO` [Glycerin], for which, in data set [1], the Comfort entry is given as “unacceptable”.
Regarding `CN(C)c1ccc(O)c2c1C[C@H]1C[C@H]3[C@H](N(C)C)C(O)=C(C(N)=O)C(=O)[C@@]3(O)C(O)=C1C2=O` [Minocycline HCl], in data set [2], the “Degradation following e-beam irradiation” value is reported as “not detected”. Also, the “Stability (degree of epimerization) in excipient” value in data set [3] is listed as “greatest stability”. For the same compound, the “Change in assay following micronization” value in data set [4] was “No change”.
